Reference: patent publication US8440701B2, “Trisubstituted 1,2,4 triazoles” (Janssen Pharmaceutica NV, priority 2007, dated 2013)

How the values were obtained:
hα7-wt nAChR [1] = molecular target: T1, hα7-wt nAChR (Homo sapiens, UniProt P36544); assay: Ca2+ flux imaging (FDSS), potentiation of choline response; format: cell-based; settings: for EC50: hα7-wt nAChR-expressing GH4C1 cells, potentiation of 100 μM choline, compounds 0.01 μM to 30 μM
T1 construct: expressed in transfected cells; host or cells: GH4C1 cells (recombinant, stably over-expressing)
T1 sequence (P36544 23-502): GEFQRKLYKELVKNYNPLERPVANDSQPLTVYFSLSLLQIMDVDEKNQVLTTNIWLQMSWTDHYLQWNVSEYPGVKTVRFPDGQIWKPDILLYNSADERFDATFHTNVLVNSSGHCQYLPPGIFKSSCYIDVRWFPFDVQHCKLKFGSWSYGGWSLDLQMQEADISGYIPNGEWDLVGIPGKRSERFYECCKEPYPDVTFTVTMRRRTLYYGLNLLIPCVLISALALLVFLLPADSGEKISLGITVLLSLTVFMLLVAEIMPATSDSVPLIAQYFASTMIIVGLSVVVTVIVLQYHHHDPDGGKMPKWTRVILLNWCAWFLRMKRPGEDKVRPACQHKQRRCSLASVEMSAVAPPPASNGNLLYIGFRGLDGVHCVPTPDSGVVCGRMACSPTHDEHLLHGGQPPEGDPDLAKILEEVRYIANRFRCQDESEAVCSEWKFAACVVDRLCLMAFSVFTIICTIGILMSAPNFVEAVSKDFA
Protocol: Ca^2+ Flux Imaging (FDSS)
• Hanks buffered saline solution (HBSS, Invitrogen, Belgium), supplemented with 10 mM HEPES (Invitrogen, Belgium), CaCl2 to a final concentration of 5 mM, 0.1% Bovine serum albumin (Sigma-Aldrich NV, Belgium). b) Calcium-Sensitive Dye—Fluo-4AM • Fluo-4AM (Molecular Probes, USA) was dissolved in DMSO containing 10% Pluronic acid (Molecular Probes, USA) to give a stock solution which was diluted in assay buffer supplemented with 5 mM probenicid (Sigma, Aldrich NV, Belgium) to give a final concentration of 2 μM. c) 384-Well Plates • Black 384 well plate black/clear plates, PDL pre-coated (Corning, Incorporated, USA) d) Calcium Flux Measurement • A Functional drug screening system (FDSS, Hamamatsu) was used to measure intracellular free-calcium flux signals. Method
Monolayers of hα7-wt nAChR-expressing GH4C1 cells were grown in multi-well plates, in particular black-sided, transparent bottomed 384 well plates coated with poly-D-lysine for 24 hours prior to loading with a fluorescent calcium indicator, in a particular embodiment loading with fluo-4AM for up to 120 minutes.
PAM activity was detected in real time by applying the compound to be tested to the loaded cells along with a α7 nicotinic receptor agonist during constant monitoring of the cellular calcium mobilization by fluorescence in a FDSS. Compounds giving peak fluorescent responses greater than the response due to agonist alone, were considered to be α7 nAChR PAM's. In a particular embodiment, the α7 nicotinic receptor agonist was choline, a more particular embodiment choline applied at a sub-maximal concentration of 100 μM. In a further setting of the present invention the compounds to be tested were applied prior to the α7 nicotinic receptor agonist, in a particular embodiment up to 10 minutes prior to the agonist.
A control response to choline was calculated on each plate from the difference in peak in fluorescence in wells receiving either choline or assay buffer alone. Compounds of the present invention were tested at a concentration range from 0.01 μM to 30 μM. Compounds were considered to have an interesting activity when they potentiated the choline signal at least with 200% when tested at a concentration of 30 μM (the efficacy of 100 μM choline was defined as 100% in the absence of a PAM).
EC50 values (potency), maximal effect (% efficacy), and Hill slopes were estimated by fitting the sigmoidal equation to the data using GraphPad Prism (GraphPad Software, Inc., San Diego, Calif.). An EC50 (or pEC50) was determined as a concentration relating to half the maximal effect, when a clear sigmoidal curve with top plateau was obtained.

hα7-wt nAChR [2] = molecular target: T1, hα7-wt nAChR; assay: Whole-cell voltage-clamp recording, PAM type classification; format: cell-based; parameters: key: Type 1 compounds enhance the effect size of the current elicited by 1 mM choline but minimally alter the kinetics of the receptor.; Type 2 compounds enhance the effect size of the current elicited by 1 mM choline while reducing the rate and/or the extent of desensitization.; Type 3 compounds enhance the effect size of the current elicited by 1 mM choline. When tested at higher concentrations up to 10 μM they completely inhibit desensitization, in particular a 1 mM choline application of 250 milliseconds.; Type 4 compounds allow for an initial desensitization of the receptor followed by a re-opening of the receptor during agonist application; settings: qualitative kinetic properties; 1 mM choline; hα7-wt nAChR-expressing GH4C1 cells
Protocol: The compounds of the present invention are classified as type 1-4, based on qualitative kinetic properties, as determined by whole-cell voltage-clamp recordings. This classification is based on the effect of an α7 PAM compound, as described hereinbefore, on the signal elicited by an agonist application. In particular, said agonist is choline at a concentration of 1 mM. In a preferred experimental setting, said α7 PAM compound and choline are simultaneously applied to the cell, as described hereinafter. Desensitization is defined as the closure of the receptor upon activation during the application of the agonist in whole-cell voltage-clamp electrophysiology measurements seen as the reduction of the […] current after initial activation by the agonist.
The definition of the PAM types 1-4 is described hereinafter: • Type 1 compounds enhance the effect size of the current elicited by 1 mM choline but minimally alter the kinetics of the receptor. In particular, the rate and the extent of desensitization, elicited by the agonist, is not affected. The compound-modulated response to 1 mM choline, therefore, is a close to linear scaling of the 1 mM choline response in absence of the α7 PAM compound. • Type 2 compounds enhance the effect size of the current elicited by 1 mM choline while reducing the rate and/or the extent of desensitization. • Type 3 compounds enhance the effect size of the current elicited by 1 mM choline. […] At low-potency concentrations of the α7 PAM compound, the agonist-induced activation, which is followed by desensitization, can still be separated from the compound-induced re-opening as an initial inward current-maximum. At higher potency concentrations of the α7 PAM compound, the re-opening occurs faster than the closure due to desensitization so that the initial current-maximum disappears.
The compounds of the present invention also have a potentiating effect on the response to choline when measured by whole-cell voltage-clamp electrophysiology in GH4C1 cells stably over-expressing the human wild-type α7 receptor, as described hereinafter.
Whole-Cell Voltage-Clamp Recording
Whole-cell voltage-clamp recording from mammalian cells has provided a powerful means of assessing the function of membrane proteins thought to be subunits of ligand-gated ion channels. Activation of such proteins by endogenous or exogenous ligands causes opening of a pore associated with the receptor through which ions flow down their electrochemical gradient. In the case of the hα7-wt nAChR-expressing GH4C1 recombinant cell line the preferential permeability to calcium of this receptor means that calcium flows into the cell upon activation by ACh, choline and other nicotinic ligands giving rise to a calcium current. Since this receptor rapidly desensitizes in the presence of an agonist it is important that an application system is used which is capable of very rapid switching of solutions (<100 ms) to prevent partial or full desensitisation of receptor responses coincident with the time of agonist application. Consequently, a second convenient technique to assess the enhancement of nicotinic efficacy is whole-cell voltage-clamp recording from hα7-wt nAChR-expressing GH4C1 cells coupled with a rapid-application system.
• The external recording solution consisted of 152 mM NaCl, 5 mM KCl, 1 mM MgCl2, 1 mM Calcium, 10 mM HEPES; pH 7.3. The internal recording solution consisted of 140 mM CsCl, 10 mM HEPES, 10 mM EGTA, 1 mM MgCl2, pH 7.3. • b) Patch-clamp recording was carried out using a Patch-clamp amplifier (Multiclamp 700A, Axon Instruments, CA, USA). The membrane potential of hα7-wt nAChR-expressing GH4C1 cells was voltage-clamped in the whole cell configuration (Hamill et al, 1981) with a borosilicate glass electrode of 1.5-3 MΩ tip resistance when filled with the internal recording solution. […]

Compound | EC50 (hα7-wt nAChR [1]) [nM] | PAM_type (hα7-wt nAChR [2]) | melting point [°C] | Emax (hα7-wt nAChR [1]; GH4-C1, maximal effect, efficacy of 100 μM choline defined as 100% in the absence of a PAM, GH4C1 cells) [%]
CCCCC(O)Cn1nc(Nc2ccc(F)c(F)c2)nc1-c1cc(C)nc(C)c1 (single isomer, unassigned; (+)) [Compound E5, (+)-1-[3-(3,4-Difluoro-phenylamino)-5-(2,6-dimethyl-pyridin-4-yl)-[1,2,4]triazol-1-yl]-hexan-2-ol] | 204 | 2 | 135 | –
CC[C@H](O)Cn1nc(Nc2ccc(F)c(F)c2)nc1-c1cc(C)nc(C)c1 [Compound E1, (S)-1-[3-(3,4-Difluoro-phenylamino)-5-(2,6-dimethyl-pyridin-4-yl)-[1,2,4]triazol-1-yl]-butan-2-ol] | 589 | 2 | 166.04 | –
CCNc1cc(-c2nc(Nc3cccc(Cl)c3)nn2C[C@@H](O)CC)ccn1 [Compound E2, (S)-1-[3-(3-Chloro-phenylamino)-5-(2-ethylamino-pyridin-4-yl)-[1,2,4]triazol-1-yl]-butan-2-ol] | 355 | 2 | 161.99 | –
CCC(O)Cn1nc(Nc2ccc(F)c(F)c2)nc1-c1ccnc(NCCOC)c1 (stereo not shown) [Compound E9] | 933 | 2 | 137.06 | 1000
CCC(O)Cn1nc(Nc2cccc(Cl)c2)nc1-c1ccnc(C)c1 (stereo not shown) [Compound E17] | 1200 | 2 | 144.31 | –
CC[C@H](O)Cn1nc(Nc2ccc(F)c(C)c2)nc1-c1ccnc(C)c1 [Compound E19, (S)-1-[3-(4-Fluoro-3-methyl-phenylamino)-5-(2-methyl-pyridin-4-yl)-[1,2,4]triazol-1-yl]-butan-2-ol] | 1950 | 2 | 133.85 | –
CCNc1cc(-c2nc(Nc3ccc(F)c(F)c3)nn2CC(O)CC)ccn1 (stereo not shown) [Compound E25] | 692 | 1 | 156.18 | –
CCNc1cc(-c2nc(Nc3cccc(Cl)c3)nn2C[C@H](O)CC)ccn1 [Compound E29, (R)-1-[3-(3-chloro-phenylamino)-5-(2-ethylamino-pyridin-4-yl)-[1,2,4]triazol-1-yl]-butan-2-ol] | 1020 | 1 | 158.66 | –
CC[C@H](O)Cn1nc(Nc2cc(OC)cc(C(F)(F)F)c2)nc1-c1cc(C)nc(C)c1 [Compound E30, (S)-1-[5-(2,6-Dimethyl-pyridin-4-yl)-3-(3-methoxy-5-trifluoromethyl-phenylamino)-[1,2,4]triazol-1-yl]-butan-2-ol] | 200 | 2 | 166.05 | –
